Laboratory results: US20210364519A1, “DETERMINING CANCER RESPONSIVENESS TO TREATMENT” (Queensland University of Technology, priority 2018, published 2021)

Assays:
[1] = system: U2OS cells; assay: Olaparib sensitivity of stable U2OS cell line ectopically expressing recombinant SASH1; type: cell-based
Source text: FIG. 6. Over expression of SASH1 infers resistance to Olaparib in U2OS cells.
Further to this, we made a stable U2OS cell line ectopically expressing recombinant SASH1.

[2] = system: cell lines depleted of SASH1; assay: Olaparib sensitivity of cell lines depleted of SASH1 using siRNA; type: cell-based; details: number of cell lines tested
Source text: FIG. 5. Depletion of SASH1 increases cancer cell sensitivity to Olaparib. A) Cell lines depleted of SASH1 have a reduced IC50 to Olaparib. B) Combined data of cell lines with SASH1 depletion showing a significant reduction in IC50 to Olaparib.

## O=C(c1cc(Cc2n[nH]c(=O)c3ccccc23)ccc1F)N1CCN(C(=O)C2CC2)CC1 [Olaparib]
[1]
  effect of SASH1 over-expression on Olaparib response: sufficient to induce resistance
[2]
  cell lines with increase in sensitivity to Olaparib after depletion of SASH1: 9 out of 12
